Earlier results as cited in patent publication US9206466B2, “Compositions and methods for regulating peptidyltransferase activity and uses thereof” (University of Maryland, priority 2004, dated 2015).

What was measured:
[1] = tested on: −1 PRF; conditions: yeast; Dinman et al., 1997
[2] = tested on: killer virus; conditions: yeast; Dinman et al., 1997

CSC[S@+]([O-])C[C@H](CO)NC(=O)/C=C/c1c(C)[nH]c(=O)[nH]c1=O [sparsomycin]
−1 PRF efficiencies [1]: promoted increased −1 PRF efficiencies
maintenance of the killer virus [2]: loss of the killer virus
